By viability, T/C is commonly meant the result in the treated group divided by that in the control group, in per cent. Broadly, the IC50 is the concentration at which inhibition is half-maximal.

Each structure is given as a SMILES string. Where “and” joins values, the source holds several entries; their conditions need not be identical. Equal entries are not always repeated.

The test system of this experiment is LG0567-F671-PDC complex spheroids viability. As to the kind of experiment: Anticancer human tumor LG0567-F671-PDC patient-derived lung adenocarcinoma cell line growth inhibition [RAS]. As to conditions: for viability, T/C: stronger effect = lower value. From the text:
RAS pathway inhibitors in Combinations in Complex Spheroids
A high-throughput screen of multi-cell type tumor spheroids was designed to identify active combinations of RAS pathway inhibitors and targeted small molecules. Complex spheroids include a stromal component modeled by human endothelial cells (HUVEC) and fibroblasts modeled by human mesenchymal stem cells (MSCs). The concentration ranges selected for each drug and investigational agent were based upon clinically achievable concentrations if the clinical Cmax of the agent was known.
Compounds. The drugs and investigational agents: abemaciclib (NSC768073), cobimetinib (NSC768068), divarasib (GDC6063, NSC841802), docetaxel (NSC628503), GDC-1971 (RLY-1971, NSC841576), gemcitabine (NSC613327), inavolisib (NSC800729), ipatasertib (NSC767898), KB-0742 (NSC834161), MRTX-1133 (NSC836407), osimertinib (NSC779217), RMC-4630 (NSC839698), RMC-6236 (NSC851965), RMC-6291 (NSC852671), Ro-3306 (NSC812927), sapanisertib (NSC764658), SN-38 (NSC673596), staurosporine (NSC755774), SY5609 (NSC837396), and tovorafenib (DAY101, NSC766906), were obtained from the National Cancer Institute (NCI) Developmental Therapeutics Program Chemical Repository. The FDA-approved anticancer drug set is available from the NCI Developmental Therapeutics Program. […] The stock solutions were prepared in dimethyl sulfoxide (DMSO, Sigma-Aldrich, St. Louis, MO, cat. D2650) at 800-fold the tested concentration and stored at -70 degrees C prior to their use. All drugs and investigational agents were tested over a range starting from a high concentration at or near the clinical Cmax and decreasing in half-log increments. If the clinical Cmax for an agent had not been determined, the highest concentration tested was 10 microM.
Cell Culture. All cells were maintained in an incubator at 37 degrees C and 5% CO2 with 95% humidity. The PDC lines were cultured according to standard operating procedures established by the NCI PDMR. All PDCs were thawed and cultured in Matrigel-coated flasks prepared with a working solution of 1X Ham's F-12 nutrient mix, without supplementation (Invitrogen, Waltham, MA, cat. 11765054), 100 U/mL penicillin-streptomycin (Invitrogen, cat. 15140122), and 2.5% Matrigel (Corning Inc., Corning, NY, cat. 354248) for the first three passages. The 362531-283-R-J2-PDC and 782815-120-R-J1-PDC lines were cultured in 6C/Colon 1B media, which includes advanced DMEM/F-12 (Thermo Fisher Scientific, cat. 12634028), 10 mM HEPES (Thermo Fisher Scientific, cat. 15630080), 1X GlutaMAX supplement (Thermo Fisher Scientific, cat. 35050061), 0.1 mg/mL primocin (InvivoGen, San Diego, CA, cat. ant-pm-2), 10% defined fetal bovine serum, heat inactivated (HyClone Laboratories Inc., Logan, UT, cat. SH30070.03HI), 50% L-WRN conditioned media (ATCC, cat. CRL-3276), 1.25 mM N-Acetyl-L-cysteine (Sigma-Aldrich, cat. A9165), 10 mM nicotinamide (Sigma-Aldrich, cat. N0636), 1X B-27 supplement (Thermo Fisher Scientific, cat. 17504044), 1X N-2 supplement (Thermo Fisher Scientific, cat. 17502048), 50 ng/mL human EGF (Thermo Fisher Scientific, cat. PHG0311), and 10 microM Y-27632 dihydrochloride (Tocris Bioscience, cat. 1254). The K12877-001-R-J1-PDC line was cultured in 6I media, which includes all 6C/Colon 1B media plus 10 ng/mL human FGF-10 (PeproTech, cat. 100-26), 1 ng/mL human FGF-2 (PeproTech, cat. 100-18B), 1 µM prostaglandin E2 (Tocris Bioscience, cat. 2296), […] hydrocortisone (Sigma-Aldrich, cat. H4001), and […] bovine insulin (Sigma-Aldrich, cat. I6634). The K86415-001-R-J1-PDC line was cultured in 6D media, which includes all 6C/Colon 1B media components minus the L-WRN conditioned media. The 485176-168-R4-J1-PDC was cultured in PANC media, which includes all 6C/Colon 1B media plus 100 ng/mL human FGF-10 (PeproTech, cat. 100-26), 500 nM SB-431542 (Selleckchem, cat. S1067), and 10 nM gastrin (Tocris Bioscience, cat. 3006). […]
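Further: spheroids exposed to compound for seven days before readout.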
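Wherever IC50 is given: luminescence signal used as a proxy for viable cells.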

Regarding `CC(=O)OC12COC1CC(O)C1(C)C(=O)C(O)C3=C(C)C(OC(=O)C(O)C(NC(=O)OC(C)(C)C)c4ccccc4)CC(O)(C(OC(=O)c4ccccc4)C21)C3(C)C` (stereo not drawn), the viability, T/C was 51.5% [middle of 4 runs] (compound 0.0316 µM); 44.6% [middle of 4 runs] (compound 0.1 µM); 58.4% [middle of 4 runs] (compound 0.316 µM); 62.5% [middle of 4 runs] (compound 1 µM); 70.3% [middle of 4 runs] (compound 3.16 µM); 63.5% [middle of 4 runs] (compound 10 µM). The half-maximal inhibitory concentration (IC50) (curve of compound) is less than 31.6 nM.
For `CC1(O)CCCC1n1c(=O)c(C(F)F)cc2cnc(NC3CCN(S(C)(=O)=O)CC3)nc21` (stereo not drawn), the viability, T/C (compound 0.0316 µM) is 88.7% [middle of 4 runs]; the viability, T/C (compound 0.1 µM) is 86.2% [middle of 4 runs]; the viability, T/C (compound 0.316 µM) is 81.6% [middle of 4 runs]; the viability, T/C (compound 1 µM) was 91.5% [middle of 4 runs]; the viability, T/C (compound 3.16 µM) was 93.8% [middle of 4 runs]; the viability, T/C (compound 10 µM) was 47% [middle of 4 runs].
`CCC(CC)c1cc(NC2CCC(N)C2)n2nccc2n1` (stereo not drawn): the viability, T/C is, setting by setting: (compound 0.0316 µM) 101% [middle of 4 runs]; (compound 0.1 µM) 106% [middle of 4 runs]; (compound 0.316 µM) 100% and 103% (2×) and 138%; (compound 1 µM) 111% and 103% (2×) and 118%; (compound 3.16 µM) 5.03% [middle of 4 runs]; (compound 10 µM) 0.67% [middle of 4 runs]. Further, under “curve of compound”, the IC50 was 1.86 µM [middle of 4 runs].
On to `C[C@@H](NC(=O)c1ncnc(N)c1Cl)c1ncc(C(=O)Nc2cc(C(F)(F)F)c(Cl)cn2)s1`, for which the viability, T/C (compound 0.0316 µM) is 115% [middle of 4 runs]; the viability, T/C (compound 0.1 µM) was 120% (2×) and 125% (2×); the viability, T/C (compound 0.316 µM) is 129% and 122% (2×) and 128%; the viability, T/C (compound 1 µM) is 121% [middle of 4 runs]; the viability, T/C (compound 3.16 µM) was 102% [middle of 4 runs]; the viability, T/C (compound 10 µM) is 79% [middle of 4 runs]. For the setting “curve of compound”, the IC50 was more than 10000 nM.
Turning to `Cc1nc(N2CCC3(CC2)COC(C)C3N)c(CO)nc1Sc1ccnc(N)c1Cl` (stereo not drawn), the viability, T/C is 72.2% [middle of 4 runs] (compound 0.0316 µM); 48.2% [middle of 4 runs] (compound 0.1 µM); 36.3% [middle of 4 runs] (compound 0.316 µM); 28.1% [middle of 4 runs] (compound 1 µM); 21.7% [middle of 4 runs] (compound 3.16 µM); 19.9% [middle of 4 runs] (compound 10 µM). In addition, under “curve of compound”, the IC50 was 93.7 nM [middle of 4 runs].
For `NC1c2ccccc2OC12CCN(c1cnc3c(N4CCCc5ncccc54)n[nH]c3n1)CC2` (stereo not drawn), the viability, T/C is, setting by setting: (compound 0.0316 µM) 37.3% [middle of 4 runs]; (compound 0.1 µM) 26.9% [middle of 4 runs]; (compound 0.316 µM) 23.4% [middle of 4 runs]; (compound 1 µM) 23% [middle of 4 runs]; (compound 3.16 µM) 21.2% [middle of 4 runs]; (compound 10 µM) 20.4% [middle of 4 runs]. In addition, for the setting “curve of compound”, the IC50 was less than 31.6 nM.
On to `C=CC(=O)Nc1cc(Nc2nccc(-c3cn(C)c4ccccc34)n2)c(OC)cc1N(C)CCN(C)C` + C#Cc1c(F)ccc2cc(O)cc(-c3ncc4c(N5CC6CCC(C5)N6)nc(OCC56CCCN5CC(F)C6)nc4c3F)c12, for which the IC50 reads like this: (curve of first compound, second compound 0.0316 µM) 120 nM; (curve of first compound, second compound 0.1 µM) 84.3 nM; (curve of first compound, second compound 0.316 µM) 8.15 nM; (curve of first compound, second compound 1 µM) less than 3.16 nM; (curve of first compound, second compound 3.16 µM) less than 3.16 nM; (curve of first compound, second compound 10 µM) less than 3.16 nM. Further, the viability, T/C was 88.7% (second compound 0.0316 µM, first compound 0.00316 µM); 80.7% (second compound 0.0316 µM, first compound 0.01 µM); 67.4% (second compound 0.0316 µM, first compound 0.0316 µM); 54.1% (second compound 0.0316 µM, first compound 0.1 µM); 34.5% (second compound 0.0316 µM, first compound 0.316 µM); 19.1% (second compound 0.0316 µM, first compound 1 µM). The viability, T/C (second compound 0.1 µM, first compound 0.00316 µM) is 79.8%; the viability, T/C (second compound 0.1 µM, first compound 0.01 µM) was 74.8%; the viability, T/C (second compound 0.1 µM, first compound 0.0316 µM) was 66.8%; the viability, T/C (second compound 0.1 µM, first compound 0.1 µM) was 47.1%; the viability, T/C (second compound 0.1 µM, first compound 0.316 µM) was 27%; the viability, T/C (second compound 0.1 µM, first compound 1 µM) is 16.2%. For the same molecule, the viability, T/C (second compound 0.316 µM, first compound 0.00316 µM) is 53.4%; the viability, T/C (second compound 0.316 µM, first compound 0.01 µM) is 49.3%; the viability, T/C (second compound 0.316 µM, first compound 0.0316 µM) was 42.8%; the viability, T/C (second compound 0.316 µM, first compound 0.1 µM) was 28.4%; the viability, T/C (second compound 0.316 µM, first compound 0.316 µM) was 22.1%; the viability, T/C (second compound 0.316 µM, first compound 1 µM) is 11.3%. Moreover, the viability, T/C is 38.1% (second compound 1 µM, first compound 0.00316 µM); 32.8% (second compound 1 µM, first compound 0.01 µM); 28.9% (second compound 1 µM, first compound 0.0316 µM); 20.4% (second compound 1 µM, first compound 0.1 µM); 11.9% (second compound 1 µM, first compound 0.316 µM); 6.5% (second compound 1 µM, first compound 1 µM). For the same molecule, the viability, T/C reads like this: (second compound 3.16 µM, first compound 0.00316 µM) 20.5%; (second compound 3.16 µM, first compound 0.01 µM) 17%; (second compound 3.16 µM, first compound 0.0316 µM) 16.2%; (second compound 3.16 µM, first compound 0.1 µM) 12.2%; (second compound 3.16 µM, first compound 0.316 µM) 8.15%; (second compound 3.16 µM, first compound 1 µM) 4.09%. The viability, T/C is, setting by setting: (second compound 10 µM, first compound 0.00316 µM) 13.5%; (second compound 10 µM, first compound 0.01 µM) 10.9%; (second compound 10 µM, first compound 0.0316 µM) 9.25%; (second compound 10 µM, first compound 0.1 µM) 6.54%; (second compound 10 µM, first compound 0.316 µM) 4.27%; (second compound 10 µM, first compound 1 µM) 2.83%.

For the origin of these results see PubChem BioAssay AID2060889 (Molecular Pharmacology Branch, DTP, NCI, 2025).
